Source: ChEMBL document CHEMBL2203102, “Crucial Role of 3-Bromoethyl in Removing the Estrogenic Activity of 17β-HSD1 Inhibitor 16β-(m-Carbamoylbenzyl)estradiol” (ACS Med Chem Lett, 2011)

What was measured:
[1] = target: T1, 17-beta-hydroxysteroid dehydrogenase type 1 (Homo sapiens) (UniProt P14061); test: Inhibition of 17beta-HSD1 in human T47D cells assessed as decrease in transformation of [14C]estrone to [14C]-estradiol at 0.01 uM after 24 hrs by thin layer chromatography; assay type: cell-based
T1 sequence (whole entry): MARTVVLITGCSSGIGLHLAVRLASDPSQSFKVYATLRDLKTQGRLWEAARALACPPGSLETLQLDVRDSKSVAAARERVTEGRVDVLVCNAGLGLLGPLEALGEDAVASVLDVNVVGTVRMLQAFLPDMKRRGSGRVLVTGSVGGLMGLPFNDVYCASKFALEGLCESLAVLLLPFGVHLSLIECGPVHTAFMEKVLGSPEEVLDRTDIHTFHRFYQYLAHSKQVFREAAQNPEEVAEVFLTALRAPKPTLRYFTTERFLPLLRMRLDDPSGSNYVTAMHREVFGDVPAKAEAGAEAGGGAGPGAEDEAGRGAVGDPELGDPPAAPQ

MCF7 = test: Estrogenic activity in estrogen-starved estrogen sensitive human MCF7 cells assessed as stimulation of cell proliferation at 0.1 to 1 uM after 7 days by CellTiter96 assay; assay type: ADME, cell-based; details: mcf7, 168 h
[2] = target: T1, 17-beta-hydroxysteroid dehydrogenase type 1 (Homo sapiens); test: Inhibition of 17beta-HSD1 in human T47D cells assessed as decrease in transformation of [14C]estrone to [14C]-estradiol at 0.1 uM after 24 hrs by thin layer chromatography; assay type: cell-based

Structure (SMILES)	inhibition [1] [%]	inhibition [2] [%]	Activity (MCF7)
C[C@]12CC[C@@H]3c4ccc(CCBr)cc4CC[C@H]3[C@@H]1C[C@H](Cc1cccc(C(N)=O)c1)[C@@H]2O	23	49	Non-toxic
C[C@]12CC[C@@H]3c4ccc(O)cc4CC[C@H]3[C@@H]1C[C@H](Cc1cccc(C(N)=O)c1)[C@@H]2O	35	66	

More lines, main results first:

inhibition [1] [%]	inhibition [2] [%]	Structure (SMILES)	Activity (MCF7)
14		C[C@]12CC[C@@H]3c4ccc(CO)cc4CC[C@H]3[C@@H]1C[C@H](Cc1cccc(C(N)=O)c1)[C@@H]2O	
20	36	C[C@]12CC[C@@H]3c4ccc(CBr)cc4CC[C@H]3[C@@H]1C[C@H](Cc1cccc(C(N)=O)c1)[C@@H]2O	
7	17	C[C@]12CC[C@@H]3c4ccc(CCO)cc4CC[C@H]3[C@@H]1C[C@H](Cc1cccc(C(N)=O)c1)[C@@H]2O	
